Tests used:
IKK-β phosphorylation = experiment: PMA/Ionomycin-induced IKK-β phosphorylation in HEK293 cells; format: cell-based; settings: 4 μM
Description: FIG. 7. CID-285852 inhibits IKKβ phosphorylation induced by PKC activators. (A) HEK293 cells were cultured in 0.5% FBS medium for 24 h and then treated with CID-2858522 (4 μM) or PKC inhibitor, Bisindolylmaleimide I (1 μM) for 2 hrs followed by PMA/Ionomycin (10 ng/mL; 5 ng/mL) for 2 h. Cell lysates were subjected to immunoprecipitation using anti-CARMA1 antibody and analyzed by immunoblotting with anti-phospho-CARMA1 antibody or anti-CARMA1 antibody. (B-E) HEK293 cells were transfected with plasmids encoding myc-CARMA1 in combination with plasmids encoding various other proteins including Caspase-8 (cys287ala) (B), HA-IKK-γ (C), HA-TAK1 (D), and TRAF6 (E). After 36 h. cells were cultured in 0.5% FBS medium for 12 h and then treated with CID-2858522 (4 μM) or Bisindolylmaleimide I (1 μM) for 2 hrs, followed by PMA/Ionomycin treatment (10 ng/mL; 5 ng/mL) for 2 hrs. Cell lysates were immunoprecipated using anti-myc antibody and analyzed by immunoblotting using anti-Caspase8 (B), anti-HA (C,D), or anti-TRAF6 (E) antibodies. […] Cell lysates were normalized for protein content and analyzed by immunoblotting using anti-FLIP and anti-alpha-tubulin antibodies. […] Cell lysates were immunoprecipitated using anti-IKK-β and analyzed by immunoblotting using anti-phospho-IKK-β antibody or anti-IKK-β antibody (as loading control). […]

HEK293 cells = experiment: Cell viability assay (ATPlite), HEK293 cells; format: cell-based
Description: Cell viability assay. Cell viability was estimated based on cellular ATP levels, measured using ATPlite kit (Perkin Elmer). Cells at a density of 10^5/mL were seeded at 90 μL per well in 96-well white plates and cultured overnight. Compounds were added (5 μL in medium) to wells and cells were cultured for […], Finally, 50 μL ATPlite solution was added to each well and luminescence activity was read using a luminometer (LJL Biosystems, Sunnyvale, Calif.).

[1] = test system: PMA/Ionomycin-stimulated IL-8 production; experiment: PMA/Ionomycin-stimulated IL-8 production by HEK293 reporter cells (ELISA); format: cell-based, human
Description: (§1) (A) Structures of two hit compounds, CID-2858522 (left) and CID-2998237 (right) are shown; (B, C) 293-NF-κB-luc cells were pretreated for 2 hrs with various concentration of either CID-2858522 (B) or CID-29982387 (C) and then stimulated with TNF (10 ng/mL) or PMA/lonomycin (10 ng/mL; 5 ng/mL) for 16 h. Luciferase activity was measured and data were expressed as a percentage relative to control treatment with DMSO only (mean±SD; n=3). (D) 293-NF-κB-luc cells were pretreated for 2 h with various concentrations of CID-2858522 or CID-2998237, then stimulated with PMA/lonomycin for 16 h. IL-8 release into the medium was measured, expressing data as a percentage relative to control cultures treated with DMSO (mean±SD; n=3). (E) 293-NF-κB-luc cells were pretreated with CID-2858522 and then stimulated with PDBu for 16 h, IL-8 production and NF-κB luciferase activity were measured as above. (F) 293-NF-κB-luc cells were pretreated for 2 h with various concentrations of CID-2858522 or a PKC inhibitor (Bisindolylmaleimide I) at 1 μM followed by PMA/Ionomycin (10 ng/mL) stimulation for 2 h, then p65-DNA-binding activity was measured in nuclear extracts (10 μg protein), expressing data as fold-increase relative to unstimulated cells (mean±SD; n=3).
Lymphokine measurements. Human IL-2 or IL-8 levels in culture medium were measured by Enzyme-Linked Immunosorbent Assays (ELISAs), using BD OptEIA ELISAs (BD Biosciences, San Diego, Calif.), according to the manufacturer's protocol, using 96-well ELISA plates (BD Biosciences) and measuring absorbance within 30 minutes of initiating reactions using a SpectraMax 190 spectrophotometer (Molecular Devices).

CLL B-cells = experiment: Cytotoxicity in CLL B-cells by ATP levels; format: cell-based, human; settings: time-frame analyzed
[2] = test system: PMA/Ionomycin-induced p65-RelA DNA-binding activity; experiment: NF-κB p65 DNA-binding activity, PMA/Ionomycin-stimulated HEK293 cells; format: cell-based
Description: as §1
NF-κB DNA-binding activity assays. Nuclear extracts were prepared from 10 cm^2 plates of confluent cells using a kit (Active Motif, Carsbad, Calif.). The total protein content of nuclear fractions was quantified by the Bradford method, followed by storage at −80° C. NF-κB DNA-binding activity was measured in nuclear extracts (10 μg protein) using an immunoassay method (TransAM Kit [Active Motif]) employing 96 well plates coated with double-strand oligodeoxynucleotides containing NF-κB consensus binding site (5′-[…]-3′) and anti-p65 antibody, which was detected by secondary horseradish peroxidase (HRP)-conjugated antibody, using a calorimetric substrate with absorbance read at 450 nm within 5 minutes using a spectrophotometer, SpectraMax M5 (Molecular Devices, Sunnyvale, Calif.).

[3] = test system: PMA/Ionomycin-induced NF-κB reporter gene activity; experiment: Transient transfection NF-κB-luciferase reporter assay (episomal plasmid), PMA/Ionomycin; format: cell-based; settings: not shown
Description: Dual-luciferase assay for NF-κB activity. Cells seeded in 96 well black plates were co-transfected with Renilla luciferase plasmid and NF-κB-responsive firefly luciferase reporter gene plasmid, with pcDNA3 control or plasmids encoding various desired proteins, using Lipofectamine 2000. The culture medium was aspirated and cells were washed with PBS, prior to adding 50 μL per well of Passive Lysis Buffer (Promega), followed by addition of Dual-luciferase assay reagent (Promega) and measurement of firefly and renilla luciferase activity, using a spectrofluorimeter.

SMILES: Cc1cc2nc(NCCCO)n(CC(=O)c3cc(C(C)(C)C)c(O)c(C(C)(C)C)c3)c2cc1C [Compound 1, 2-(2-(3-Hydroxypropylamino)-5,6-dimethyl-1H-benzo[d]imidazol-1-yl)-1-(3,5-di-tert-butyl-4-hydroxyphenyl)ethanone]
- inhibition of PMA/Ionomycin-induced IKK-β phosphorylation (IKK-β phosphorylation): significantly inhibited
- concentrations not toxic to HEK293 cells (HEK293 cells): ≤ 8 µM
- IC50 ([1]; Homo sapiens): < 100 nM
- concentration at which maximum suppression of IL-8 production is achieved ([1]; PMA/Ionomycin): 1 µM
- cytotoxicity in CLL B-cells (CLL B-cells): not due to cytotoxicity
- concentration of maximal suppression of NF-κB DNA-binding activity ([2]; HEK293): ~1 µM
- lowest concentration with evident suppression of NF-κB DNA-binding activity ([2]; HEK293): 0.1 µM
- inhibition of p65-RelA DNA-binding activity ([2]; compared to PKC inhibitor): only partially inhibited
- inhibition of NF-κB reporter in transient transfection assay [3]: potently inhibited

— US20090247520A1, “INHIBITORS OF ANTIGEN RECEPTOR-INDUCED NF-kappa B ACTIVATION” (The Burnham Institute for Medical Research, priority 2008, published 2009)
